The target in assay [1] is T1, human CETP (Homo sapiens, UniProt P11597).
T1 construct: made in house; host or cells: AV-12 cells (engineered to express human CETP)
T1 sequence (P11597 18-493): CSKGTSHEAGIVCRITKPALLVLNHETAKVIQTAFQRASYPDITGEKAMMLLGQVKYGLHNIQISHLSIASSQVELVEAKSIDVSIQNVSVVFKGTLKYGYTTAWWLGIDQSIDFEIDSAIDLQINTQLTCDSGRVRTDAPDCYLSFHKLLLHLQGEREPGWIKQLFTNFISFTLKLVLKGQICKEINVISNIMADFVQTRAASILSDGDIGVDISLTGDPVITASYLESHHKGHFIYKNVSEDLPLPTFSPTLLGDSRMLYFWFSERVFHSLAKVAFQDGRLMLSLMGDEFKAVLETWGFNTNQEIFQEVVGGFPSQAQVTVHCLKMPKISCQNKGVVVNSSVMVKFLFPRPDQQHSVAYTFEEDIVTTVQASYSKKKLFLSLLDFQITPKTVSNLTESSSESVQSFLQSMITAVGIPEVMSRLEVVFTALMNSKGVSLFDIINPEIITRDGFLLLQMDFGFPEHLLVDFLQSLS
The assay can be described thus: In vitro CETP inhibitor assay: SPA assay. As to conditions: CETP produced by AV-12 cells expressing human CETP; [3H]cholesterol ester transfer from HDL to biotinylated LDL; 30-minute incubation at 37 C; HEPES-NaCl based buffer; read-out: Inhibition of CETP Activity (SPA assay) IC50. In kind it is biochemical. The procedure: An in vitro scintillation proximity assay (SPA) has been used to test the ability of compounds of this invention to inhibit the transfer of radiolabeled cholesterol esters between HDL and LDL. This assay monitors the inhibition of the transfer of [^3H]cholesterol esters from HDL (Amersham) to biotinylated LDL (Amersham) by a CETP source. CETP produced by AV-12 cells that have been created to express human CETP has been used to mediate the transfer. After a 30-minute incubation at 37 C in which the radiolabeled cholesterol ester is transferred in a HEPES-NaCl based buffer, the reaction is stopped and the biotinylated LDL is bound to streptavidin/scintillant coated SPA beads (Amersham). Then the radioactive signal is measured in a Packard 96-well scintillation TopCounter with window settings fully open. Compounds of this invention can be added to the reaction mixture in an appropriate solvent to assess their ability to inhibit the transfer of the radiolabeled cholesterol esters by CETP, represented by a decrease in radioactive signal. The activity transferred in the reaction mixtures with control solvents is rated as 100% transfer. The compound concentration at which the activity is midway between 100% and the lowest recorded activity is indicated as the IC50 value. A three-parameter fixed top logistic curve-fitting algorithm is used to generate the IC50 value.

Assay [2] relates to transgenic mice that express both human CETP and human apolipoprotein A-1. The assay is described as follows: Assay of plasma lipids in vivo (elevation of HDL cholesterol). As to conditions: single oral dose 30 mg/kg; at 8 hr; serum HDL cholesterol relative to control. The procedure: Activity of compounds of this invention in vivo can be determined by the level of elevation of HDL cholesterol relative to control by a given amount of compound in a CETP-containing animal species. A strain of transgenic mice that express both human CETP and human apolipoprotein A-1 (Taconic, Germantown, N.Y.) is used to test compounds of this invention. Test compounds are administered once orally in selected aqueous or oil based vehicles. At various times after dosing, ranging from 4 h to 24 h, blood is obtained. Blood is allowed to clot and serum is obtained by centrifugation. HDL cholesterol levels in the serum is determined by HDL-C plus reagents (Roche/Hitachi, Indianapolis, Ind.) with a clinical chemistry analyzer (Roche/Hitachi, Indianapolis, Ind.). Additional serum lipids can be analyzed by enzymatic methods. Lipids in the VLDL, LDL and HDL fractions are analyzed by enzymatic methods after precipitation or size exclusion chromatography.

By IC50 is commonly meant the concentration needed to halve the response being measured. On to `CC(=O)N(Cc1cc(C(F)(F)F)cc(C(F)(F)F)c1)C1CCCN(C(=O)OC(C)C)c2c1ccc1c2CCC1` (racemic) [Example 129, (+/−)-6-[Acetyl-(3,5-bis-trifluoromethyl-benzyl)-amino]-2,3,6,7,8,9-hexahydro-1H-10-aza-cyclohepta[e]indene-10-carboxylic acid isopropyl ester], for which the IC50 in assay [1] was 54 nM.
Turning to `CC(=O)N(Cc1cc(C(F)(F)F)cc(C(F)(F)F)c1)C1CCCN(C(=O)OC(C)C)c2ccccc21` (stereo not shown) [Example 1, 5-[Acetyl-(3,5-bis-trifluoromethyl-benzyl)-amino]-2,3,4,5-tetrahydro-benzo[b]azepine-1-carboxylic acid isopropyl ester], the IC50 in assay [1] was 293 nM.
Take `CC(=O)N(Cc1cc(C(F)(F)F)cc(C(F)(F)F)c1)C1CCCN(C(=O)OC(C)(C)C)c2cc(C(F)(F)F)c(C)cc21` (stereo not shown) [Example 117, 5-[Acetyl-(3,5-bis-trifluoromethyl-benzyl)-amino]-7-methyl-8-trifluoromethyl-2,3,4,5-tetrahydro-benzo[b]azepine-1-carboxylic acid tert-butyl ester]: in assay [1], the IC50 was 65 nM.
With `CC(=O)N(Cc1cc(C(F)(F)F)cc(C(F)(F)F)c1)[C@H]1CCCN(C(=O)OC(C)C)c2cc(C(F)(F)F)c(C)cc21` [Example 111, (S)-5-[Acetyl-(3,5-bis-trifluoromethyl-benzyl)-amino]-7-methyl-8-trifluoromethyl-2,3,4,5-tetrahydro-benzo[b]azepine-1-carboxylic acid isopropyl ester], the IC50 in assay [1] worked out at 68 nM.
Regarding `CC(=O)N(Cc1cc(C(F)(F)F)cc(C(F)(F)F)c1)C1CCCN(C(=O)OC2CCCC2)c2cc(OC(F)(F)F)c(C)cc21` (stereo not shown) [Example 182, 5-[Acetyl-(3,5-bis-trifluoromethyl-benzyl)-amino]-7-methyl-8-trifluoromethoxy-2,3,4,5-tetrahydro-benzo[b]azepine-1-carboxylic acid cyclopentyl ester], the IC50 in assay [1] is 191 nM.
With `CC(=O)N(Cc1cc(C(F)(F)F)cc(C(F)(F)F)c1)[C@H]1CCCN(C(=O)OC(C)(C)C)c2cc(C(F)(F)F)c(C)cc21` [Example 119, (S)-5-[Acetyl-(3,5-bis-trifluoromethyl-benzyl)-amino]-7-methyl-8-trifluoromethyl-2,3,4,5-tetrahydro-benzo[b]azepine-1-carboxylic acid tert-butyl ester], the IC50 in assay [1] was 42 nM. In assay [2], the “% HDL cholesterol increase” value worked out at 123%.

Source of the values: patent publication US7749992B2, “Compounds and methods for treating dislipidemia” (Eli Lilly and Company, priority 2003, dated 2010).
